From patent publication US12268690B2, “Treatments for mutations in acute myeloid leukemia” (OREGON HEALTH & SCIENCE UNIVERSITY, priority 2018, dated 2025)

Test system: freshly isolated mononuclear cells from AML samples
Experiment: Ex vivo functional drug screen (MTS viability, AUC) on primary AML samples, compared by mutation or clinical group
Format: cell-based, human
From the text: This panel contained graded concentrations of a drugs with activity against two-thirds of the tyrosine kinome as well as other non-tyrosine kinase pathways, including MAPKs, PI3K/AKT/mTOR, AMPK, ATM, Aurora kinases, CAMKs, CDKs, GSK3a/b, IκK, PKA, PKC, PLK1, and RAF. In addition, the library contained small molecule inhibitors with activity against the BCL2 family, BRD4, Hedgehog, HSP90, NOTCH/gamma-secretase, proteasome, survivin, STAT3, and WNT/beta-catenin. Drug sensitivity patterns were analyzed with respect to clinical and genetic features of tumors. We compared the average area-under-the curve (AUC) values for each drug between the de novo and transformed samples via a series of single factor ANOVAs. […] In addition, we analyzed the concordance of drug sensitivity patterns with respect to predicted target gene, gene family, or pathway for each drug. […] To create a global view of overall sensitivity or resistance of each case, we generated a heatmap of binary sensitive/resistant calls for each sample to each drug.
Correlation of drug sensitivity with mutational events was performed by assessing the range of sensitivity of cases with mutation of an individual gene (as well as co-occurring mutational events) versus cases with wild type sequence for that same gene. […] The difference in average drug sensitivity of mutant versus wild type cases for each drug/mutation pair was plotted on the horizontal axis of a volcano plot with a test for statistical significance of the comparison plotted on the vertical axis (corrected for multiple comparison false discovery rate^42; FIG. 4). […] To aid in discovery of potential mutational biomarkers of drug sensitivity, we plotted volcano plots that were specific to each individual drug (versus all possible mutational events) and for each individual gene (versus all possible drugs tested).
Ex vivo drug screens were performed on freshly isolated mononuclear cells from AML samples as previously described^41.
Ex vivo functional drug screens were performed on freshly isolated mononuclear cells from AML samples. […] Drug plates were created using inhibitors purchased from LC Laboratories and Selleck Chemicals and master stocks were reconstituted in DMSO and stored at −80° C. […] DMSO control wells and positive control wells containing a drug combination of Flavopiridol, Staurosporine and Velcade were placed on each plate, with the final concentration of DMSO ≤0.1% in all wells. Daughter plates were created using a V&P Scientific 384-well pin tool head operated by the Caliper Sciclone ALH 3000 and equipped with 0.457 mm diameter, 30 nanoliter, slotted stainless steel pins (cat num: FP1NS30). Daughter and destination plates were sealed with pealable thermal seals using a PlateLoc thermal sealer. Destination plates were stored at −20° C. for no more than three months and thawed immediately before use. Primary mononuclear cells were plated across single-agent inhibitor panels within 24 h of collection. […] After 3 d of culture at 37° C. in 5% CO2, MTS reagent (CellTiter96 AQueous One; Promega) was added, optical density was measured at 490 nm, and raw absorbance values were adjusted to a reference blank value and then used to determine cell viability (normalized to untreated control wells).
A given sample was run on one or more panels and within each panel, the majority of drugs were run without within-panel replicates. […] An additional set of ‘curve-free’ AUCs was computed for sample-inhibitor pairs run on multiple panels.
Based on the methodology used in our prior drug combination study^36, a probit regression was fit to all possible run groups using the model: (normalized_viability/100)˜1+log 10(concentration) Where for all groups there were N=7 dose-response measurements. The summary measures of curve fit were inspected and cutoffs were devised removing all runs with an AIC >12 and deviance >2.

CNC(=O)c1cc(Oc2ccc(NC(=O)Nc3ccc(Cl)c(C(F)(F)F)c3)c(F)c2)ccn1 [Regorafenib]
drug sensitivity mutant vs wild type (average difference in AUC; top left quadrant of volcano plot) (FLT3_ITD): regorafenib | drug sensitivity mutant vs wild type (average difference in AUC; top left quadrant of volcano plot) (NPM1): Regorafenib | drug sensitivity mutant vs wild type (average difference in AUC; top left quadrant of volcano plot) (NPM1:DNMT3A): Regorafenib | drug sensitivity mutant vs wild type (average difference in AUC; top left quadrant of volcano plot) (NPM1:FLT3_ITD): regorafenib | drug sensitivity mutant vs wild type (average difference in AUC; top left quadrant of volcano plot) (NPM1:FLT3_ITD:DNMT3A): regorafenib | drug sensitivity mutant vs wild type (average difference in AUC; top left quadrant of volcano plot) (NPM1:IDH2): regorafenib | drug sensitivity mutant vs wild type (average difference in AUC; top left quadrant of volcano plot) (NPM1:SRSF2): regorafenib | drug sensitivity mutant vs wild type (average difference in AUC; top left quadrant of volcano plot) (NPM1:TET2: DNMT3A): Regorafenib

CC[C@H](CO)Nc1nc(NCc2ccccc2)c2ncn(C(C)C)c2n1 [Roscovitine]
drug sensitivity mutant vs wild type (average difference in AUC; top left quadrant of volcano plot) (FLT3_ITD): roscovitine | drug sensitivity mutant vs wild type (average difference in AUC; top left quadrant of volcano plot) (NPM1:IDH1): roscovitine | drug sensitivity mutant vs wild type (average difference in AUC; top left quadrant of volcano plot) (ZRSR2): Roscovitine

C#Cc1cccc(Nc2ncnc3cc(OCCOC)c(OCCOC)cc23)c1 [erlotinib]
drug sensitivity mutant vs wild type (average difference in AUC; top left quadrant of volcano plot) (FLT3_ITD:DNMT3A): erlotinib | drug sensitivity mutant vs wild type (average difference in AUC; top left quadrant of volcano plot) (NPM1): erlotinib | drug sensitivity mutant vs wild type (average difference in AUC; top left quadrant of volcano plot) (NPM1:FLT3_ITD:DNMT3A): erlotinib | drug sensitivity mutant vs wild type (average difference in AUC; top left quadrant of volcano plot) (NPM1:FLT3_ITD:TET2): erlotinib | drug sensitivity mutant vs wild type (average difference in AUC; top left quadrant of volcano plot) (NPM1:IDH1): erlotinib | drug sensitivity mutant vs wild type (average difference in AUC; top left quadrant of volcano plot) (NPM1:IDH2): erlotinib | drug sensitivity mutant vs wild type (average difference in AUC; top left quadrant of volcano plot) (NPM1:SRSF2): erlotinib

COc1cc2ncnc(Nc3ccc(F)c(Cl)c3)c2cc1OCCCN1CCOCC1 [Gefitinib]
drug sensitivity mutant vs wild type (average difference in AUC; top left quadrant of volcano plot) (FLT3_ITD): gefitinib | drug sensitivity mutant vs wild type (average difference in AUC; top left quadrant of volcano plot) (FLT3_ITD:SRSF2): Gefitinib | drug sensitivity mutant vs wild type (average difference in AUC; top left quadrant of volcano plot) (FLT3_ITD_IHD2): gefitinib | drug sensitivity mutant vs wild type (average difference in AUC; top left quadrant of volcano plot) (NPM1): Gefitinib | drug sensitivity mutant vs wild type (average difference in AUC; top left quadrant of volcano plot) (NPM1:DNMT3A): Gefitinib | drug sensitivity mutant vs wild type (average difference in AUC; top left quadrant of volcano plot) (NPM1:FLT3_ITD): gefitinib | drug sensitivity mutant vs wild type (average difference in AUC; top left quadrant of volcano plot) (NPM1:FLT3_ITD:DNMT3A): gefitinib | drug sensitivity mutant vs wild type (average difference in AUC; top left quadrant of volcano plot) (NPM1:IDH2): gefitinib | drug sensitivity mutant vs wild type (average difference in AUC; top left quadrant of volcano plot) (NPM1:SRSF2): gefitinib

CCS(=O)(=O)O.COC(=O)c1ccc2c(c1)NC(=O)/C2=C(\Nc1ccc(N(C)C(=O)CN2CCN(C)CC2)cc1)c1ccccc1 [Vargetef]
drug sensitivity mutant vs wild type (average difference in AUC; top left quadrant of volcano plot) (FLT3_ITD): vargetef | drug sensitivity mutant vs wild type (average difference in AUC; top left quadrant of volcano plot) (FLT3_ITD:DNMT3A): vargetef | drug sensitivity mutant vs wild type (average difference in AUC; top left quadrant of volcano plot) (FLT3_ITD:FLT3): vargetef | drug sensitivity mutant vs wild type (average difference in AUC; top left quadrant of volcano plot) (FLT3_ITD:TET2): vargetef | drug sensitivity mutant vs wild type (average difference in AUC; top left quadrant of volcano plot) (FLT3_ITD:TET2:DNMT3A): Vargetef | drug sensitivity mutant vs wild type (average difference in AUC; top left quadrant of volcano plot) (FLT3_ITD_IHD2): vargetef | drug sensitivity mutant vs wild type (average difference in AUC; top left quadrant of volcano plot) (IDH2): Vargetef | drug sensitivity mutant vs wild type (average difference in AUC; top left quadrant of volcano plot) (NPM1): Vagetef | drug sensitivity mutant vs wild type (average difference in AUC; top left quadrant of volcano plot) (NPM1:FLT3_ITD): vargetef | drug sensitivity mutant vs wild type (average difference in AUC; top left quadrant of volcano plot) (NPM1:FLT3_ITD:DNMT3A): vargetef | drug sensitivity mutant vs wild type (average difference in AUC; top left quadrant of volcano plot) (NPM1:FLT3_ITD:TET2): vargetef | drug sensitivity mutant vs wild type (average difference in AUC; top left quadrant of volcano plot) (NPM1:IDH2): Vargetef | drug sensitivity mutant vs wild type (average difference in AUC; top left quadrant of volcano plot) (NPM1:SRSF2): Vargetef | drug sensitivity mutant vs wild type (average difference in AUC; top left quadrant of volcano plot) (NPM1:TET2: DNMT3A): Vargetef

CC1(C)CNc2cc(NC(=O)c3cccnc3NCc3ccncc3)ccc21 [motesanib]
drug sensitivity mutant vs wild type (average difference in AUC; top left quadrant of volcano plot) (FLT3_ITD:RUNX1): motesanib

COc1c(Cl)cc2c([nH]c3cnccc32)c1NC(=O)c1cccnc1C [MLN120B]
drug sensitivity mutant vs wild type (average difference in AUC; top left quadrant of volcano plot) (NPM1:IDH2): MLN120B | drug sensitivity mutant vs wild type (average difference in AUC; top left quadrant of volcano plot) (NPM1:SRSF2): MLN120B

CN1CC[C@H](c2c(O)cc(O)c3c(=O)cc(-c4ccccc4Cl)oc23)[C@H](O)C1 [Flavopiridol]
drug sensitivity mutant vs wild type (average difference in AUC; top left quadrant of volcano plot) (NRAS): (GSK1120212), or Flavopiridol

Cc1[nH]c(/C=C2\C(=O)Nc3ccc(S(=O)(=O)Cc4c(Cl)cccc4Cl)cc32)c(C)c1C(=O)N1CCC[C@@H]1CN1CCCC1 [PHA-665752]
drug sensitivity mutant vs wild type (average difference in AUC; top left quadrant of volcano plot) (IDH2): PHA-665752

C[C@H](NC(=O)Cc1cc(F)cc(F)c1)C(=O)N[C@@H]1C(=O)N(C)c2ccccc2-c2ccccc21 [DBZ, N-[(1S)-2-[[(7S)-6,7-Dihydro-5-methyl-6-oxo-5H-dibenz[b,d]azepin-7-yl]amino]-1-methyl-2-oxoethyl]-3,5-difluorobenzeneacetamide]
drug sensitivity mutant vs wild type (average difference in AUC; top left quadrant of volcano plot) (FLT3_ITD:IDH1): DBZ | drug sensitivity mutant vs wild type (average difference in AUC; top left quadrant of volcano plot) (IDH2): DBZ | drug sensitivity mutant vs wild type (average difference in AUC; top left quadrant of volcano plot) (NPM1): DBZ | drug sensitivity mutant vs wild type (average difference in AUC; top left quadrant of volcano plot) (NPM1:IDH2): DBZ | drug sensitivity mutant vs wild type (average difference in AUC; top left quadrant of volcano plot) (NPM1:SRSF2): DBZ | drug sensitivity mutant vs wild type (average difference in AUC; top left quadrant of volcano plot) (NPM1:SRSF2:IDH2): DBZ

Cn1cc(-c2ccc3nnc(Sc4ccc5ncccc5c4)n3n2)cn1 [SGX-523, 6-((6-(1-methyl-1H-pyrazol-4-yl)-[1,2,4]triazolo[4,3-b]pyridazin-3-yl)thio)quinoline]
drug sensitivity mutant vs wild type (average difference in AUC; top left quadrant of volcano plot) (NPM1:CEBPA): SGX-523 | drug sensitivity mutant vs wild type (average difference in AUC; top left quadrant of volcano plot) (NPM1:IDH2): SGX-523 | drug sensitivity mutant vs wild type (average difference in AUC; top left quadrant of volcano plot) (NPM1:SRSF2): SGX-523 | drug sensitivity mutant vs wild type (average difference in AUC; top left quadrant of volcano plot) (NPM1:SRSF2:IDH2): SGX-523

Nc1nc(Nc2ccc(S(N)(=O)=O)cc2)nn1C(=O)c1c(F)cccc1F [JNJ-7706621, 4-((5-amino-1-(2,6-difluorobenzoyl)-1H-1,2,4-triazol-3-yl)amino)benzenesulfonamide]
drug sensitivity mutant vs wild type (average difference in AUC; top left quadrant of volcano plot) (NPM1:DNMT3A): JNJ-7706621 | drug sensitivity mutant vs wild type (average difference in AUC; top left quadrant of volcano plot) (NPM1:IDH1): JNJ-7706621

Cc1ccc2nc(NCCN)c3ncc(C)n3c2c1 [BMS-345541, N′-(1,8-dimethyl-4-imidazo[1,2-a]quinoxalinyl)ethane-1,2-diamine]
drug sensitivity mutant vs wild type (average difference in AUC; top left quadrant of volcano plot) (PDS5B): BMS-345541

Cc1cc(Nc2cc(N3CCN(C)CC3)nc(Sc3ccc(NC(=O)C4CC4)cc3)n2)[nH]n1 [Tozasertib]
drug sensitivity mutant vs wild type (average difference in AUC; top left quadrant of volcano plot) (FLT3_ITD): Tozasertib | drug sensitivity mutant vs wild type (average difference in AUC; top left quadrant of volcano plot) (FLT3_ITD:DNMT3A): tozasertib | drug sensitivity mutant vs wild type (average difference in AUC; top left quadrant of volcano plot) (FLT3_ITD_IHD2): tozasertib | drug sensitivity mutant vs wild type (average difference in AUC; top left quadrant of volcano plot) (IDH2): Tozasertib | drug sensitivity mutant vs wild type (average difference in AUC; top left quadrant of volcano plot) (NPM1:FLT3_ITD:DNMT3A): tozasertib | drug sensitivity mutant vs wild type (average difference in AUC; top left quadrant of volcano plot) (NPM1:SRSF2): Tozasertib
